Melting point and IC50 data for 5 compounds are collected here from publication PMC7824787, “Design, Synthesis and In Vitro Investigation of Novel Basic Celastrol Carboxamides as Bio-Inspired Leishmanicidal Agents Endowed with Inhibitory Activity against Leishmania Hsp90” (Biomolecules, 2021).

One data set relates to L. tropica promastigotes. Briefly: Antileishmanial activity on L. tropica promastigotes (MTT). The format is cell-based. As for the experimental part: (§1) Promastigote stage of L. infantum (MHOM/TN/80/IPT1, kindly provided by Dr. M. Gramiccia and Dr. T. Di Muccio, ISS, Roma) and L. tropica (MHOM/SY/2012/ISS3130) were cultured in RPMI 1640 medium (EuroClone) supplemented with 15% heat-inactivated fetal calf serum (EuroClone, Milan, Italy), 20 mM HEPES, and 2 mM L-glutamine at 23 °C. The MTT (3-[4.5-dimethylthiazol-2-yl]-2.5-diphenyltetrazolium bromide) method was used to estimate the 50% inhibitory concentration (IC50), with some modifications. Compounds were dissolved in DMSO and then diluted with medium to achieve the required concentrations. Test compounds were placed in 96 wells round bottom microplates and seven serial dilutions made. Amphotericin B was used as the reference antileishmanial drug. Parasites were diluted in complete medium to 5 × 10^6 parasites/mL and 100 μL of the suspension was seeded into the plates and incubated at 23 °C for 72 h. Then 20 μL of MTT solution (5 mg/mL) was added into each well, after 3 h the plates were centrifuged, the supernatants discarded and the resulting pellets dissolved in 100 μL of lysing buffer consisting of 20% (w/v) of a solution of SDS (Sigma), 40% of N,N-dimethylformamide (Merck) in H2O. The absorbance of the obtained solutions was measured at a wavelength of 550 nm with a reference at 650 nm with a microplate spectrophotometer (Synergy 4-Biotek, Milan, Italy) and analyzed with the Gen5® software for data processing.
(§2) The results are expressed as IC50, the dose of compound that is necessary to inhibit cell growth by 50%; each IC50 value is the mean ± standard deviation of at least three separate experiments performed in duplicate.

Another data set deals with HMEC-1. The data set is described as follows: Cytotoxicity on HMEC-1 (MTT). Type of data set: cell-based, human. As to conditions: 72 h, MTT, read-out: Healthy Cell Lines IC50, HMEC-1. The procedure: (§3) Cytotoxicity was evaluated on human microvascular endothelial cells (HMEC-1, provided by the Centers for Disease Control, Atlanta, GA, USA), on immortalized mouse C57Bl/6 bone marrow derived macrophages (BMDM) from wild type lineage (generated in the laboratories of Drs. Douglas Golenbock and Kate Fitzgerald, University of Massachusetts, Worcester, MA, USA) and on a human acute monocytic leukaemia cell line (THP-1).
(§4) HMEC-1 were maintained in MCDB 131 medium (Invitrogen, Milan, Italy) supplemented with 10% fetal calf serum (HyClone), 10 ng/mL of epidermal growth factor, 1 μg/mL of hydrocortisone, 2 mM glutamine and 20 mM HEPES buffer, at 37 °C in 5% CO2. BMDM were maintained in DMEM (Euroclone) medium supplemented with 10% fetal bovine serum (HyClone, Celbio, Milan, Italy), 2 mM glutamine, and 25 mM of HEPES buffer solution (Euroclone). THP-1 were maintained in RPMI supplemented with 10% heat-inactivated FCS, 50 µM 2-mercaptoethanol, 10 µM sodium pyruvate, 20 mM HEPES, and 2 mM glutamine. In order to achieve differentiation into macrophages, cells were treated with 10 ng/mL phorbol myristate acetate (PMA) for 72 h.
(§5) For the cytotoxicity assay, cells were seeded in 96 well flat bottom tissue culture clusters (Costar, New York, NY, USA) at the following concentrations: HMEC 10^5 cell/mL, BMDM at 10^6 cell/mL, THP1 at 5 × 10^5 cell/mL. After 24 h, cells were treated with serial dilutions of test compounds in a final volume of 200 µL/well. Cell proliferation was evaluated after 72 h using the MTT assay.
(§6) The absorbances were measured with a microplate spectrophotometer (Synergy 4-Biotek) at a test wavelength of 550 nm and a reference wavelength of 650 nm. The results are expressed as IC50 as the concentration inhibiting 50% of cell growth. Each IC50 value is the mean and standard deviation of at least three separate experiments performed in duplicate.

A further data set deals with THP-1. Briefly: Cytotoxicity on THP-1 (MTT). The format is cell-based, human. The conditions noted are these: read-out: Healthy Cell Lines IC50, THP-1. As for the experimental part: as §3, §4, §5, §6
In the next data set the target is LbHsp90 (Leishmania braziliensis, UniProt A4HL70). The data set is described as follows: In vitro inhibition of the ATPase activity of LbHsp90 (Malachite Green Phosphate Assay). The format is biochemical. As to conditions: 7 μM LbHsp90, 27 °C, 60 min. The source says:
To evaluate in vitro the modulatory activity of CE, PR and CE caboxamides, a full-length recombinant Hsp90 from L. braziliensis (LbHsp90) was produced in E. coli BL21 DE3 harboring the pET28a_LbHsp90 coding for the C-terminal His-tagged target chaperone (genbank number: XP_001567804.1, full sequence is reported in Appendix B). Pratically, the plasmid pET28a_LbHsp90, kindly donated by professor J.C. Borges, was transformed in E. coli BL21 DE3 using the TransformAid Bacterial Transformation Kit (Thermo Fisher, Waltham, MA, USA). Subsequently, the obtained transformants were grown overnight in LB medium containing 30 μg mL^−1 kanamycin (LBkan30) and then inoculated in 1 L SB kan30 medium (Yeast extract 30 g L^−1, Tryptone 20 g L^−1, NaCl 10 g L^−1) at 37 °C and 220 rpm. When the OD600 reached 0.5–1, gene expression was induced by the addition of 2 mL of 1 M IPTG solution in water and the culture was shifted at 30 °C for 24 h. After cell harvesting by centrifugation (5000 rpm for 30 min), the cell pellet was resuspended in 20 mL of wash buffer (20 mM HEPES buffer, pH 7.0, 500 mM NaCl, 20 mM imidazole) and recombinant E. coli BL21DE3 cells were disrupted by ultrasonication. LbHsp90 was subsequently purified using a Nickel Sepharose 6 Fast Flow agarose resin (Ni-NTA) (GE Healthcare, Milan, Italy) as follows. Soluble protein fraction was separated from cell debris by centrifugation (10,000 rpm for 30min) after cell ultrasonication, and clear lysates were incubated with the Ni-NTA resin for 90 min at 4 °C under mild shaking and loaded onto a glass column (10 × 110 mm). The resin was then washed with 10mL of wash buffer and His-tagged LbHsp90 was eluted using a 3 step gradient (10 mL washing buffer containing 100, 200, and 300 mM imidazole, respectively) and dialyzed against 20 mM HEPES buffer (20 mM, pH 7.5), at 4 °C overnight. The protein content was measured using the Bio-Rad Protein Assay (Hercules, CA, USA) according to the Bradford method and the protein purity was verified by SDS-PAGE analysis (10% T, 2.6% C). It is worth noting that to avoid interferences with the assays described below, proteins were purified and conserved in HEPES buffer (20 mM, pH 7.5) in place of the standard PB-buffer. Reported data are the mean of two experiments run in duplicate.
Modulatory activity toward the ATPase cycle of LbHsp90 was determined using a Malachite Green Phosphate Assay Kit (Catalog Number MAK307, Sigma-Aldrich®, St. Louis, MO, USA). Analyses were run in a 96-well plate directly following the quantitative formation of a green complex between Malachite Green, molybdate, and free orthophosphate (Pi) produced by ATP hydrolysis catalyzed by the chaperone. Color formation from the reaction was measured on a plate reader at 620 nm. Briefly, the IC50 of CE and its derivatives were extrapolated from a set of dose-response curves obtained by calculating the amount of Pi produced by LbHsp90 in the presence of different compounds concentrations.
Reactions were run in HEPES buffer (20 mM, pH 7.5) containing 3 mM MgCl2 and 50 mM KCl in the presence of different compounds concentrations ([…]), LbHsp90 (7 μM) and ATP (25 mM) at 27 °C for 60 min. OD620 was measured 30 min after Malachite Green reactants addition.
LbHsp90 native activity was measured by conducting the reaction in the presence of just LbHsp90 and ATP and extrapolating the concentration of Pi obtained.
Three sets of control experiments, (1) ATP background hydrolysis, (2) compounds-related interferences and (3) protein-related background coloration, were run as follow: • (1) ATP (25 mM) incubated at 27 °C for 60 min • (2) Compounds (different concentrations) incubated with ATP (25 mM) at 27 °C for 60 min • (3) LbHsp90 (7 μM) at 27 °C for 60 min
The in vitro performances of CE, PR and the carboxamides 1–11 (Figure 4) as potential inhibitors of the Leishmania braziliensis Hsp90 were investigated using Sigma-Aldrich® Malachite Green Phosphate Assay Kit. […]

The subject of the next data set is BMDM. Briefly: Cytotoxicity on BMDM (MTT). The conditions noted are these: 72 h, read-out: Healthy Cell Lines IC50, BMDM. Type of data set: cell-based, mouse. The procedure:
as §3, §4, §5, §6

Data set [1] concerns L. infantum promastigotes. The data set is described as follows: Antileishmanial activity on L. infantum promastigotes (MTT). The format is cell-based. As for the experimental part: as §1, §2
Setting [2] is: Leishmania tropica, 72 h, 23 °C, MTT, read-out: Leishmania Promastigotes IC50, L. tropica.
Where [3] appears, read: Homo sapiens, THP-1, PMA-differentiated, 72 h, MTT.
Where [4] appears, read: 72 h, 23 °C, MTT; read-out: Leishmania Promastigotes IC50, L. tropica.

Read-outs that look alike come from different tables or passages of the source.

Sequence of LbHsp90 (A4HL70 entry or part of it): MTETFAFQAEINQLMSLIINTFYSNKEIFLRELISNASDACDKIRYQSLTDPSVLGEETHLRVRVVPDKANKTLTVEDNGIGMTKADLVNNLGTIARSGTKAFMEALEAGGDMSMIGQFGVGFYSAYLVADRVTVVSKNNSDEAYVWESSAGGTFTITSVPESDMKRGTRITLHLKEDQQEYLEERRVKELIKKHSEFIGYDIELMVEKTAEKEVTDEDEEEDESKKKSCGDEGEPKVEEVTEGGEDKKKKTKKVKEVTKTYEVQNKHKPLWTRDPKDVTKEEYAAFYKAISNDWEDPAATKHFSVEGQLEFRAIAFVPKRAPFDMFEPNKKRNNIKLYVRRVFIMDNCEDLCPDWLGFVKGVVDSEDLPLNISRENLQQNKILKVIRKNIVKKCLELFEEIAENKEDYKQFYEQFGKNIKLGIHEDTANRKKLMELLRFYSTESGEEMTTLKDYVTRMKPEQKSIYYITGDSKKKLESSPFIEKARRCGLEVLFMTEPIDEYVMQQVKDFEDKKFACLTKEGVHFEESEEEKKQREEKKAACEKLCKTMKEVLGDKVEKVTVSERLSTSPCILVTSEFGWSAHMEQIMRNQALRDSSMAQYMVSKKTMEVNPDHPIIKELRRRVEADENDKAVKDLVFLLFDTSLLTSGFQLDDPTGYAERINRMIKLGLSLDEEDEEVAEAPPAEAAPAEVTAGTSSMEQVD

As for `CC1=C(O)C(=O)C=C2C1=CC=C1[C@@]2(C)CC[C@@]2(C)[C@@H]3C[C@](C)(C(=O)NCCCNc4ccnc5cc(Cl)ccc45)CC[C@]3(C)CC[C@]12C` [compound 7, (2R,4aS,6aS,12bR,14aS,14bR)-N-(3-((7-chloroquinolin-4-yl)amino)propyl)-10-hydroxy-2,4a,6a,9,12b,14a-hexamethyl-11-oxo-1,2,3,4,4a,5,6,6a,11,12b,13,14,14a,14b-tetradecahydropicene-2-carboxamide], the melting point lay within 211.1 to 215 °C. Further, in the data set on L. tropica promastigotes (setting [2]), the IC50 stood at 150 ± 40 nM. Also, the IC50 with HMEC-1 (Homo sapiens, HMEC-1) came out at 130 ± 10 nM. Besides, the IC50 with THP-1 (setting [3]) was 480 ± 170 nM. For the same compound, at LbHsp90, the IC50 is > 125000 nM. For the same compound, in the data set on BMDM (Mus musculus, BMDM, MTT), the IC50 amounted to 1780 ± 530 nM. Moreover, in data set [1] (Leishmania infantum, 72 h, 23 °C, MTT, read-out: Leishmania Promastigotes IC50, L. infantum), the IC50 turned out to be 200 ± 10 nM.

As for “(6bS,8aS,11R,12aR,12bS,14aR)-3-hydroxy-4,6b,8a,11,12b,14a-hexamethyl-11-(((((2R,3R,4R,5S,6R)-2,4,5-trihydroxy-6-(hydroxymethyl)tetrahydro-2H-pyran-3-yl)amino)oxy)carbonyl)-7,8,8a,9,10,11,12,12a,12b,13,14,14a-dodecahydropicen-2(6bH)-one [compound 11]”, the concentration for half-maximal inhibition (IC50) in the data set with L. tropica promastigotes (setting [4]) was 15200 ± 2710 nM; with HMEC-1 it was > 14200 nM; in the data set on THP-1 (PMA-differentiated, 72 h, MTT) it was > 15900 nM; at LbHsp90 it was 47000 ± 5000 nM; in the data set with BMDM (MTT), > 15900 nM; in data set [1] (72 h, 23 °C, MTT; read-out: Leishmania Promastigotes IC50, L. infantum) it was 14400 ± 1960 nM.

Turning to `CC1=C(O)C(=O)C=C2C1=CC=C1[C@@]2(C)CC[C@@]2(C)[C@@H]3C[C@](C)(C(=O)NCSS(C)(=O)=O)CC[C@]3(C)CC[C@]12C` [compound 8, S-(((2R,4aS,6aS,12bR,14aS,14bR)-10-hydroxy-2,4a,6a,9,12b,14a-hexamethyl-11-oxo-1,2,3,4,4a,5,6,6a,11,12b,13,14,14a,14b-tetradecahydropicene-2-carboxamido)methyl) methanesulfonothioate], the IC50 is 3440 ± 1120 nM in the data set with L. tropica promastigotes (setting [4]); 2000 to 4000 nM in the data set with L. tropica promastigotes (setting [2]); 3030 ± 10 nM in the data set with HMEC-1 (Homo sapiens, HMEC-1); 2510 ± 870 nM in the data set on THP-1 (setting [3]); 67000 ± 3000 nM against LbHsp90; 13900 ± 2780 nM in the data set on BMDM (Mus musculus, BMDM, MTT).

Consider `COC(=O)[C@]1(C)CC[C@]2(C)CC[C@]3(C)C4=CC=C5C(=CC(=O)C(O)=C5C)[C@]4(C)CC[C@@]3(C)[C@@H]2C1` [PR, pristimerin, reference compound], for which the half-inhibitory concentration (IC50) is 240 ± 40 nM in the data set with L. tropica promastigotes (Leishmania tropica, 72 h, read-out: Leishmania Promastigotes IC50, L. tropica); 1100 ± 350 nM in the data set on THP-1 (Homo sapiens, THP-1, 72 h); 1270 ± 90 nM in the data set with BMDM (Mus musculus, BMDM); 260 ± 20 nM in data set [1] (Leishmania infantum, 72 h, read-out: Leishmania Promastigotes IC50, L. infantum).

Consider `CC1=C(O)C(=O)C=C2C1=CC=C1[C@@]2(C)CC[C@@]2(C)[C@@H]3C[C@](C)(C(=O)NCCCN4CCCCC4)CC[C@]3(C)CC[C@]12C` [compound 2, (2R,4aS,6aS,12bR,14aS,14bR)-10-hydroxy-2,4a,6a,9,12b,14a-hexamethyl-11-oxo-N-(3-(piperidin-1-yl)propyl)-1,2,3,4,4a,5,6,6a,11,12b,13,14,14a,14b-tetradecahydropicene-2-carboxamide], for which the IC50 in the data set with L. tropica promastigotes (Leishmania tropica; 72 h, 23 °C, MTT; read-out: Leishmania Promastigotes IC50, L. tropica) was 210 ± 40 nM; in the data set on THP-1 (setting [3]), 1780 ± 480 nM; against LbHsp90, > 125000 nM; in data set [1] (Leishmania infantum; 72 h, 23 °C, MTT; read-out: Leishmania Promastigotes IC50, L. infantum), 260 ± 60 nM.
